For 18 molecules, Ki and IC50 results are on record in patent US9120798B2, “Amino-heteroaryl 7-hydroxy-spiropiperidine indolinyl antagonists of P2Y1 receptor” (priority 2012, dated 2015).

Read-outs that look alike come from different tables or passages of the source.

Test [1] deals with cloned human P2Y1 receptors (Homo sapiens (Human), UniProt P47900). Briefly: Binding Assay B: Scintillation Proximity Assay (SPA) for P2Y1 binding. The protocol: Binding Assay B—Scintillation Proximity Assay (SPA) for P2Y1 Binding
Sequence of cloned human P2Y1 receptors (P47900 whole entry): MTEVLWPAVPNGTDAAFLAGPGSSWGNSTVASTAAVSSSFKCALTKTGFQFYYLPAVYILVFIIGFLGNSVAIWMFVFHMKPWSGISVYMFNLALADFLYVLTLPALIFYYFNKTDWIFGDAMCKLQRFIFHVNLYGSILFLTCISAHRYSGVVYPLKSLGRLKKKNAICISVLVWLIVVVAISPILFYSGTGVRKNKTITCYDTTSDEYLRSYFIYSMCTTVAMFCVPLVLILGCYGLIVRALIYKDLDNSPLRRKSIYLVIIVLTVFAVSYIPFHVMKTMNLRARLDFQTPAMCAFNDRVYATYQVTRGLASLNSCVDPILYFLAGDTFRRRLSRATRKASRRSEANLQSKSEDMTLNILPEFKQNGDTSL
A SPA membrane binding assay was used to identify inhibitors of [^33P] […] Binding reactions were performed in 384-well OptiPlates (PerkinElmer Life Sciences, Cat #6007299) in a volume of 50 μL containing ˜15 fmol of P2Y1 receptor (1.7 μg of total protein), 0.3 nM [^33P] […] Reactions were allowed to proceed to completion at room temperature for 1 hour followed by centrifugation of the plate for 5 min. About 40 μL of the aqueous solution was aspirated. Plates were sealed and the [^33P]
On the technique in general: Scintillation proximity formats need no separation of bound from free tracer.

In test [2] the test system is human platelet rich plasma (PRP). Briefly: ADP induced platelet aggregation assay. The note with it: 5 min, read-out: PA IC50 (μM) @ 10 μM ADP. The class given is cell-based. The protocol: ADP Induced Platelet Aggregation Assay
The ability of P2Y1 antagonists covered in the present invention to inhibit platelet aggregation induced by 10 μM ADP was tested using human platelet rich plasma (PRP) as described in Platelet Protocols: Research and Clinical Laboratory Procedures (White, M. M. et al., Academic Press (1999)). Human blood was collected in 30 μM (final concentration in blood) argatroban (GSK) as the anticoagulant at a ratio of 1 ml per 9 ml of blood. The PRP was isolated by centrifugation at 170 g for 12 minutes. The platelet poor plasma (PPP) was used as the blank for optical aggregometry. Compounds of the present invention in DMSO solution was preincubated with 250 μl PRP at 37° C. for 1 minute with stirring speed of 1000 rpm. Aggregation was initiated by addition of 2.5 μl of 1 mM ADP (Chrono-log, Havertown, Pa.) for a final ADP concentration of 10 uM. Platelet aggregation was monitored using Optical Aggregometer (Chrono-log, Havertown, Pa.) and the area under the curve (AUC) at 5 minute was measured. IC50 was calculated using vehicle control as 0% inhibition.
The platelet aggregation assay measures the in vitro antiplatelet activity of a compound in platelet rich plasma. The assay is sensitive to plasma protein binding, and is believed to be a better predictor of actual in vivo activity.

Setting [3] is: SPA, 0.3 nM [33P] 2MeS-ADP, Cheng-Prusoff, read-out: P2Y1 Ki (nM) using binding assay B.

In general, Ki refers to a dissociation constant, usually derived from enzyme kinetics or from competition with a known ligand. A word on the IC50: it is the point on the concentration scale where inhibition reaches its midpoint. On to `CC(C)(C)CN1CCC2(CC1)CN(c1ccccc1Nc1nnc(-c3ccc(C(C)(C)C)cc3)s1)c1c(O)ccc(C(F)(F)F)c12` [Example 2, 1-(2-(5-(4-tert-Butylphenyl)-1,3,4-thiadiazol-2-ylamino)phenyl)-1′-neopentyl-4-(trifluoromethyl)spiro[indoline-3,4′-piperidin]-7-ol], for which, in test [1] (setting [3]), the Ki worked out at 26 nM. Also, the IC50 in test [2] is 0.9 µM.

In the case of `CC(C)(C)CN1CCC2(CC1)CN(c1ccccc1Nc1nnc(-c3ccc(Cl)cc3)s1)c1c(O)ccc(Cl)c12` [Example 21, 4-chloro-1-(2-((5-(4-chloro-phenyl)-1,3,4-thiadiazol-2-yl)amino)phenyl)-1′-neopentylspiro[indoline-3,4′-piperidin]-7-ol], the Ki in test [1] (setting [3]) turned out to be 13 nM. The IC50 in test [2] was 1.3 µM.

Consider `CC(C)(C)CN1CCC2(CC1)CN(c1ccccc1Nc1nnc(-c3cccc(F)c3)s1)c1c(O)ccc(Cl)c12` [Example 29, 4-chloro-1-(2-((5-(3-fluoro-phenyl)-1,3,4-thiadiazol-2-yl)amino)phenyl)-1′-neopentylspiro[indoline-3,4′-piperidin]-7-ol], for which, in test [1], the Ki worked out at 23 nM. Further, the IC50 in test [2] is 2.4 µM.

In turn, `CC(C)(C)CN1CCC2(CC1)CN(c1ccccc1Nc1ccc(C(F)(F)F)cn1)c1c(O)ccc(Cl)c12` [Example 42, 4-Chloro-1′-neopentyl-1-(2-(5-(trifluoromethyl)pyridin-2-ylamino)phenyl)spiro[indoline-3,4′-piperidin]-7-ol] registered a Ki in test [1] of 22 nM. Besides, in test [2], the IC50 was 22.8 µM.

For `CC(C)(C)CN1CCC2(CC1)CN(c1ccccc1Nc1nnc(-c3ccc(OC(F)(F)F)cc3)s1)c1c(O)cc(F)c(Cl)c12` [Example 33, 4-chloro-5-fluoro-1′-neopentyl-1-(2-((5-(4-(trifluoromethoxy)-phenyl)-1,3,4-thiadiazol-2-yl)amino)phenyl)spiro[indoline-3,4′-piperidin]-7-ol], the Ki in test [1] came to 23 nM. In addition, the IC50 in test [2] was found to be 9.2 µM.

`CC(C)(C)CN1CCC2(CC1)CN(c1ccccc1Nc1nnc(-c3ccc(OC(F)(F)F)cc3)s1)c1c(O)ccc(F)c12` [Example 30, 4-fluoro-1′-neopentyl-1-(2-((5-(4-(trifluoromethoxy)-phenyl)-1,3,4-thiadiazol-2-yl)amino)phenyl)spiro[indoline-3,4′-piperidin]-7-ol]: in test [1], the Ki amounted to 5 nM. Further, the IC50 in test [2] came out at 2 µM.

As to `CCOC(=O)c1sc(Nc2ccccc2N2CC3(CCN(CC(C)(C)C)CC3)c3c(Cl)ccc(O)c32)nc1C(F)(F)F` [Example 40, Ethyl 2-(2-(4-chloro-7-hydroxy-1′-neopentylspiro[indoline-3,4′-piperidine]-1-yl)phenylamino)-4-(trifluoromethyl)thiazole-5-carboxylate], the affinity in test [1] corresponds to a Ki of 19 nM. Also, the IC50 in test [2] is 1 µM.

Turning to `COC(=O)c1ccc(O)c2c1C1(CCN(CC(C)(C)C)CC1)CN2c1ccccc1Nc1nnc(-c2ccc(C(C)(C)C)cc2)s1` [Example 44, Methyl 1-(2-(5-(4-tert-butylphenyl)-1,3,4-thiadiazol-2-ylamino)phenyl)-7-hydroxy-1′-neopentylspiro[indoline-3,4′-piperidine]-4-carboxylate], the Ki in test [1] (setting [3]) stood at 8 nM. For the same molecule, in test [2], the IC50 stood at 0.8 µM.

In test [1], `CC(C)(C)CN1CCC2(CC1)CN(c1ccccc1Nc1nnc(-c3cccc(F)c3)s1)c1c(O)ccc(C(F)(F)F)c12` [Example 5, 1-(2-(5-(3-Fluorophenyl)-1,3,4-thiadiazol-2-ylamino)phenyl)-1′-neopentyl-4-(trifluoromethyl)spiro[indoline-3,4′-piperidin]-7-ol] registered a Ki of 12 nM. In addition, the IC50 in test [2] came to 1.6 µM.

As to `CC(C)(C)CN1CCC2(CC1)CN(c1ccccc1Nc1nc(-c3ccccc3)ns1)c1c(O)ccc(Cl)c12` [Example 35, 4-Chloro-1′-neopentyl-1-(2-(3-phenyl-1,2,4-thiadiazol-5-ylamino)phenyl)spiro[indoline-3,4′-piperidin]-7-ol], in test [1] (setting [3]), the Ki amounted to 6 nM. Also, the IC50 in test [2] amounted to 5.4 µM.

The molecule `CC(C)(C)CN1CCC2(CC1)CN(c1ccccc1Nc1nnc(-c3cc(F)ccc3Cl)s1)c1c(O)ccc(Cl)c12` [Example 24, 4-chloro-1-(2-((5-(2-chloro-5-fluorophenyl)-1,3,4-thiadiazol-2-yl)amino)phenyl)-1′-neopentylspiro[indoline-3,4′-piperidin]-7-ol] gave a Ki in test [1] of 28 nM. The IC50 in test [2] was determined as 4.5 µM.

Turning to `CC(C)(C)CN1CCC2(CC1)CN(c1ccccc1Nc1nnc(-c3ccc(C(C)(C)C)cc3)s1)c1c(O)ccc(C#N)c12` [Example 46, 1-(2-(5-(4-tert-Butylphenyl)-1,3,4-thiadiazol-2-ylamino)phenyl)-7-hydroxy-1′-neopentylspiro[indoline-3,4′-piperidine]-4-carbonitrile], affinity in test [1] was put at a Ki of 10 nM. The IC50 in test [2] was determined as 1.1 µM.

For `CC(C)(C)CN1CCC2(CC1)CN(c1ccccc1Nc1cc(-c3ccccc3)on1)c1c(O)ccc(Cl)c12` [Example 38, 4-Chloro-1′-neopentyl-1-(2-(5-phenylisoxazol-3-ylamino)phenyl)spiro[indoline-3,4′-piperidin]-7-ol], the Ki in test [1] (setting [3]) came to 66 nM. In test [2], the IC50 came to 9 µM.

Turning to `CC(C)(C)CN1CCC2(CC1)CN(c1ccccc1Nc1nnc(-c3ccccn3)s1)c1c(O)ccc(C(F)(F)F)c12` [Example 6, 1′-Neopentyl-1-(2-(5-(pyridin-2-yl)-1,3,4-thiadiazol-2-ylamino)phenyl)-4-(trifluoromethyl)spiro[indoline-3,4′-piperidin]-7-ol], the Ki in test [1] was 11 nM. The IC50 in test [2] came to 2.3 µM.

Regarding `CC(C)(C)CN1CCC2(CC1)CN(c1ccccc1Nc1nnc(-c3ccc(C(F)(F)F)cc3)s1)c1c(O)ccc(C(F)(F)F)c12` [Example 3, 1′-Neopentyl-4-(trifluoromethyl)-1-(2-(5-(4-(trifluoromethyl)phenyl)-1,3,4-thiadiazol-2-ylamino)phenyl)spiro[indoline-3,4′-piperidin]-7-ol], in test [1] (setting [3]), the Ki was found to be 16 nM. Further, in test [2], the IC50 was 0.5 µM.

Consider `CC(C)(C)CN1CCC2(CC1)CN(c1ccccc1Nc1nnc(-c3cccc(Cl)c3)s1)c1c(O)ccc(Cl)c12` [Example 20, 4-chloro-1-(2-((5-(3-chloro-phenyl)-1,3,4-thiadiazol-2-yl)amino)phenyl)-1′-neopentylspiro[indoline-3,4′-piperidin]-7-ol], for which, in test [1] (setting [3]), the Ki amounted to 16 nM. Moreover, in test [2], the IC50 is 2.6 µM.

On to `CC(C)(C)CN1CCC2(CC1)CN(c1ccccc1Nc1nnc(-c3ccncc3)s1)c1c(O)ccc(Cl)c12` [Example 10, 4-Chloro-1′-neopentyl-1-(2-((5-(pyridin-4-yl)-1,3,4-thiadiazol-2-yl)amino)phenyl)spiro[indoline-3,4′-piperidin]-7-ol], for which the affinity in test [1] corresponds to a Ki of 40.2 nM. Further, the IC50 in test [2] stood at 11.4 µM.

For the molecule `COC(=O)c1ccc(O)c2c1C1(CCN(CC(C)(C)C)CC1)CN2c1ccccc1Nc1nnc(-c2ccc(C(F)(F)F)cc2)s1` [Example 43, Methyl 7-hydroxy-1′-neopentyl-1-(2-(5-(4-(trifluoromethyl)phenyl)-1,3,4-thiadiazol-2-ylamino)phenyl)spiro[indoline-3,4′-piperidine]-4-carboxylate], the affinity in test [1], expressed as Ki, was 8 nM. Further, the half-inhibitory concentration (IC50) in test [2] stood at 3.1 µM.
